# Data taken from PubChem BioAssay AID652 (University of Pittsburgh Molecular Library Screening Center, 2007).
# Target: Gag-Pol polyprotein (Human immunodeficiency virus type 1 group M subtype B (isolate HXB2)) (UniProt P04585)
# Assay: concentration-response of HIV-1 RNase H blockers – biochemical, probe assessment, dose response (AID 652)
# Conditions: HIV-1 RT RNase H enzymatic assay
row,SMILES,IC50 [µM]
1,COC(=O)C1=C(C)N=c2s/c(=C3\C(=O)Nc4ccccc43)c(=O)n2C1c1ccccc1 (stereo unspecified),5.94

# Same assay, conditions: HIV-1 RT RNase H enzymatic assay, inhibition, at 50 µM, stronger effect = higher value
row,SMILES,inhibition [%]
1,CC(C)Cn1c(SCC(=O)NC(=O)Nc2ccc3c(c2)OCCO3)nc2ccccc2c1=O,83.9
2,CCOC(=O)N(c1ccccc1)P1(=S)OCCO1,85.5
3,CC(C)C1N=C2c3ccccc3N=C(SCC(=O)c3ccc(O)c(O)c3)N2C1=O (stereo unspecified),99.8
4,CC(=O)N(Cc1cc(=O)[nH]c2ccccc12)c1cccc(C)c1,89.9
5,CC(C)CNC(=O)c1c(N)n(/N=C/c2ccccn2)c2nc3ccccc3nc12,95
6,CCOC(=O)Cc1csc(-n2sc3ccccc3c2=O)n1,96.4
7,CCOC(=O)C(C(C)=O)c1c(Br)c(O)c(O)c2c(C(=O)c3ccc(C)cc3)coc12 (stereo unspecified),86.7
8,N#Cc1c(SCC(=O)Nc2nccs2)nc2c(c1-c1ccco1)CCCC2,88.9
9,CC(C)Sc1nc2sc3c(c2c2nnc(SCC(=O)NCc4ccco4)n12)CCCC3,85.1
10,CC(Cc1ccc(O)c(O)c1)C(C)Cc1ccc(O)c(O)c1 (stereo unspecified),99
11,Cc1nc(-c2cccc(S(=O)(=O)N3CCOCC3)c2)cs1,96.4
12,Cc1nn(CCC#N)c2c1P(=S)(N1CCCC1)OC(c1ccc(F)cc1)=N2 (stereo unspecified),90.2
13,CCC(C)c1ccc2oc(-c3ccc(NC(=O)c4ncn[nH]4)cc3)nc2c1 (stereo unspecified),94.2
14,COc1cc(-c2nnc3sc(-c4cccnc4)nn23)cc(OC)c1OC,72.2
15,COc1cc(-c2nnc3sc(Cc4ccc(Cl)cc4)nn23)cc(OC)c1OC,96.4
16,Fc1ccc(-c2nnc3sc(-c4ccc5c(c4)OCO5)nn23)cc1,72.3
17,CCCc1cc(C(N)=O)c(NC(=O)C2CCCO2)s1 (stereo unspecified),98.3
18,c1ccc(-c2ccc(-c3ccccn3)nn2)nc1,52.4
19,COC(=O)c1ccc2c(=O)n(Cc3ccco3)c(SCC(=O)Nc3ccccc3Cl)nc2c1,92.2
20,N#Cc1nc(-c2ccc(OCc3ccc(Cl)cc3)cc2)oc1NCc1cccnc1,99.4
21,CCOC(=O)N1CCc2c(sc3c2C(=O)NC(c2ccc(-c4ccc(Cl)cc4)o2)N3)C1 (stereo unspecified),94.3
22,CN(c1ccccc1)c1ccc(/C=c2\s/c(=C(/C#N)C(=O)C(C)(C)C)n(Cc3ccco3)c2=O)cc1,92.9
23,COC(=O)C1=C(C)N=c2s/c(=C3\C(=O)Nc4ccccc43)c(=O)n2C1c1ccccc1 (stereo unspecified),85.1
24,O=C(CSc1nc2ccccc2c2nc3ccccc3n12)NCc1ccco1,67.7
25,COc1ccc(CC(=O)Nc2ccc(-c3noc(-c4cccc(OC)c4)n3)cc2)cc1,85.5
